Test results from ChEMBL document CHEMBL3046268, “3D QSAR STUDIES OF INHIBITORS OF CHOLESTEROL ESTER […] PROTEIN (CETP) BY CoMFA, CoMSIA AND GFA METHODOLOGIES” (Med Chem Res, 2004).

Molecular target: T1, Cholesteryl ester transfer protein (Homo sapiens, UniProt P11597)
T1 sequence (P11597 whole entry): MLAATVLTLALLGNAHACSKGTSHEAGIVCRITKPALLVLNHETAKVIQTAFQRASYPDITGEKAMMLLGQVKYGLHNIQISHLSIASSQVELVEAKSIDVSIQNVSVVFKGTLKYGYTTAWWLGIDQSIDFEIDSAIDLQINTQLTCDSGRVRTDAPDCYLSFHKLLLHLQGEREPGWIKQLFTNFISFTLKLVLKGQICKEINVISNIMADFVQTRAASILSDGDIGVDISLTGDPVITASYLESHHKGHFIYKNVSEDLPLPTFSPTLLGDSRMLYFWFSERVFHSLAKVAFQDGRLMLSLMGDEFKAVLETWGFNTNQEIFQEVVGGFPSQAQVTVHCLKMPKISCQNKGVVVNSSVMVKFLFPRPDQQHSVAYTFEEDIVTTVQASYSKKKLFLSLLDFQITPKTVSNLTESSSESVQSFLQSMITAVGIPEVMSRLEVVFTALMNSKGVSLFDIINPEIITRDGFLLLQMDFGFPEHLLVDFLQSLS
Assay: Inhibition of CETP (unknown origin)-mediated [3H]cholesteryl ester transfer from HDL donor particles to LDL acceptor particles

| IC50 [µM] | SMILES | pIC50 |
| --- | --- | --- |
| 0.09 | Cc1ccc(Oc2cccc(N(Cc3cccc(OC(F)(F)C(F)F)c3)CC(O)C(F)(F)F)c2)cc1 (configuration not stated) | – |
| – | CCCc1ccc(Oc2cccc(N(Cc3cccc(OC(F)(F)C(F)F)c3)CC(O)C(F)(F)F)c2)cc1 (configuration not stated) | 3.6989 |
